According to patent US10227337B2, “Evaluation probe for central nervous system permeability, evaluation method for central nervous system permeability, and screening method using an evaluation probe for central nervous system permeability” (CANON KABUSHIKI KAISHA, priority 2011, dated 2019):

tested on: not listed separately; test: Measurement of fluorescence characteristics of dye compounds; type: physicochemical; conditions: 5-μM solution in DMSO
Description: 5-μM solutions of Dye compounds 1 to 46 in DMSO were each prepared and measured for its excitation wavelength and fluorescence emission wavelength with an FL4500 fluorescence spectrometer manufactured by Hitachi High-Technologies Corporation.

Excitation wavelength λex [nm]	Fluorescence wavelength λem [nm]	SMILES
474	590	O=C(O)CCN1C(=O)/C(=C\c2cc(Br)c3c(c2)C2CCCC2N3c2ccc(Br)cc2)SC1=S (centres unmarked) [Compound 1]
521	634	COc1ccc(N2c3ccc(/C=C4/SC(=S)N(CCC(=O)O)C4=O)cc3C3CCCC32)cc1 (centres unmarked) [Compound 2]
510	584	O=C(O)CCN1C(=O)/C(=C\c2ccc3c(c2)C2CCCC2N3Cc2ccccc2)SC1=S (centres unmarked) [Compound 3]
502	604	O=C(O)CCN1C(=O)/C(=C\c2ccc3c(c2)C2CCCC2N3c2ccccc2)SC1=S (centres unmarked) [Compound 4]
521	646	COc1ccc2cc(N3c4ccc(/C=C5/SC(=S)N(CCC(=O)O)C5=O)cc4C4CCCC43)ccc2c1 (centres unmarked) [Compound 5]
517	590	CN1c2ccc(/C=C3/SC(=S)N(CCC(=O)O)C3=O)cc2C2CCCC21 (centres unmarked) [Compound 6]
509	593	CCN1c2ccc(/C=C3/SC(=S)N(CCC(=O)O)C3=O)cc2CC1C (centres unmarked) [Compound 7]
510	597	CCN1CCc2cc(/C=C3/SC(=S)N(CCC(=O)O)C3=O)ccc21 [Compound 8]
452	540	CCn1c2ccccc2c2cc(/C=C3/SC(=S)N(CCC(=O)O)C3=O)ccc21 [Compound 9]
519	592	CCCN1c2ccc(/C=C3/SC(=S)N(CCC(=O)O)C3=O)cc2C2CCCC21 (centres unmarked) [Compound 10]
564	671	CCN1c2ccc(/C=C/C=C3/SC(=S)N(CCC(=O)O)C3=O)cc2C2CCCC21 (centres unmarked) [Compound 11]
518	647	CSc1ccc(N2c3ccc(/C=C4/SC(=S)N(CCC(=O)O)C4=O)cc3C3CCCC32)cc1 (centres unmarked) [Compound 12]
513	587	CCN1c2ccc(/C=C3/SC(=S)N(CCC(=O)O)C3=O)cc2C2CCCC21 (centres unmarked) [Compound 13]
507	585	CCN1c2ccc(/C=C3/SC(=S)N(CC(=O)O)C3=O)cc2C2CCCC21 (centres unmarked) [Compound 14]
517	638	CSc1ccc(N2c3ccc(/C=C4/SC(=S)N(CC(=O)O)C4=O)cc3C3CCCC32)cc1 (centres unmarked) [Compound 15]
510	590	CCN1c2ccc(/C=C3/SC(=S)N(CC(=O)O)C3=O)cc2CC1C (centres unmarked) [Compound 16]
508	604	O=C(O)CN1C(=O)/C(=C\c2ccc3c(c2)C2CCCC2N3c2ccccc2)SC1=S (centres unmarked) [Compound 17]
509	604	CSc1cccc(N2c3ccc(/C=C4/SC(=S)N(CC(=O)O)C4=O)cc3C3CCCC32)c1 (centres unmarked) [Compound 18]
511	594	CCN1CCc2cc(/C=C3/SC(=S)N(CC(=O)O)C3=O)ccc21 [Compound 19]
506	581	O=C(O)CN1C(=O)/C(=C\c2ccc3c(c2)C2CCCC2N3Cc2ccccc2)SC1=S (centres unmarked) [Compound 20]
476	580	O=C(O)CN1C(=O)/C(=C\c2cc(Br)c3c(c2)C2CCCC2N3c2ccc(Br)cc2)SC1=S (centres unmarked) [Compound 21]
505	612	O=C(O)CN1C(=O)/C(=C\c2ccc3c(c2)CCN3c2ccccc2)SC1=S [Compound 22]

Excitation wavelength λex [nm]	Fluorescence wavelength λem [nm]	SMILES
518	637	COc1ccc(N2c3ccc(/C=C4/SC(=S)N(CC(=O)O)C4=O)cc3C3CCCC32)cc1 (centres unmarked) [Compound 23]
486	578	O=C(O)CN1C(=O)/C(=C\c2cc(Br)c3c(c2)C2CCCC2N3Cc2ccccc2)SC1=S (centres unmarked) [Compound 24]
453	536	CCn1c2ccccc2c2cc(/C=C3/SC(=S)N(CC(=O)O)C3=O)ccc21 [Compound 25]
525	646	COc1ccc2cc(N3c4ccc(/C=C5/SC(=S)N(CC(=O)O)C5=O)cc4C4CCCC43)ccc2c1 (centres unmarked) [Compound 26]
518	590	CCOC(=O)CCN1C(=O)/C(=C\c2ccc3c(c2)C2CCCC2N3CC)SC1=S (centres unmarked) [Compound 27]
525	610	CCN1C(=O)/C(=c2\s/c(=C/c3ccc4c(c3)C3CCCC3N4c3ccccc3)c(=O)n2CC(=O)O)SC1=S (centres unmarked) [Compound 29]
550	650	CCN1C(=O)/C(=c2\s/c(=C/c3ccc4c(c3)C3CCCC3N4c3ccc(OC)cc3)c(=O)n2CC(=O)O)SC1=S (centres unmarked) [Compound 31]
544	658	CCN1C(=O)/C(=c2\s/c(=C/c3ccc4c(c3)C3CCCC3N4c3ccc(SC)cc3)c(=O)n2CC(=O)O)SC1=S (centres unmarked) [Compound 32]
536	632	CCN1C(=O)/C(=c2\s/c(=C/c3ccc4c(c3)C3CCCC3N4c3cccc(SC)c3)c(=O)n2CC(=O)O)SC1=S (centres unmarked) [Compound 33]
543	649	CCN1C(=O)/C(=c2\s/c(=C/c3ccc4c(c3)C3CCCC3N4c3ccc4cc(OC)ccc4c3)c(=O)n2CC(=O)O)SC1=S (centres unmarked) [Compound 34]
520	617	CCN1C(=O)/C(=c2\s/c(=C/c3cc(Br)c4c(c3)C3CCCC3N4c3ccc(Br)cc3)c(=O)n2CC(=O)O)SC1=S (centres unmarked) [Compound 35]
541	640	CCN1C(=O)/C(=c2\s/c(=C/c3ccc4c(c3)CC(C)N4CC)c(=O)n2CC(=O)O)SC1=S (centres unmarked) [Compound 36]
525	616	CCN1C(=O)/C(=c2\s/c(=C/c3cc(Br)c4c(c3)C3CCCC3N4Cc3ccccc3)c(=O)n2CC(=O)O)SC1=S (centres unmarked) [Compound 37]
541	642	CCN1C(=O)/C(=c2\s/c(=C/c3ccc4c(c3)CCN4CC)c(=O)n2CC(=O)O)SC1=S [Compound 38]
536	640	CCN1C(=O)/C(=c2\s/c(=C/c3ccc4c(c3)CCN4c3ccccc3)c(=O)n2CC(=O)O)SC1=S [Compound 39]
494	551	CCN1C(=O)/C(=c2\s/c(=C/c3ccc4c(c3)c3ccccc3n4CC)c(=O)n2CC(=O)O)SC1=S [Compound 40]
515	624	C=CCN1C(=O)/C(=c2\s/c(=C/c3ccc4c(c3)C3CCCC3N4c3ccc(OC)cc3)c(=O)n2CC(=O)O)SC1=S (centres unmarked) [Compound 41]
543	636	C=CCN1C(=O)/C(=c2\s/c(=C/c3ccc4c(c3)C3CCCC3N4c3ccccc3)c(=O)n2CC(=O)O)SC1=S (centres unmarked) [Compound 42]
552	668	CCCCCCCCN1C(=O)/C(=c2\s/c(=C/c3ccc4c(c3)C3CCCC3N4c3ccc(OC)cc3)c(=O)n2CC(=O)OCC)SC1=S (centres unmarked) [Compound 43]
548	656	CCCCCN1C(=O)/C(=c2\s/c(=C/c3ccc4c(c3)C3CCCC3N4c3ccc(OC)cc3)c(=O)n2CC(=O)OCC)SC1=S (centres unmarked) [Compound 44]
513	589	CCN1c2ccc(/C=C3/SC(=S)N(CCCCCC(=O)O)C3=O)cc2C2CCCC21 (centres unmarked) [Compound 45]
516	585	CCN1c2ccc(/C=C3/SC(=S)N(CCCCCCCCCCC(=O)O)C3=O)cc2C2CCCC21 (centres unmarked) [Compound 46]

tested on: cranial nerve tissue (brain) of juvenile zebrafish; test: Example 3: brain fluorescence of juvenile zebrafish exposed to compound (23) probe liquid with or without MK571 and FTC; type: in vivo; conditions: concluded from single versus combined MK571 and FTC
Procedure: A probe liquid 6 was obtained by changing the compound (8) used in the probe liquid 1 of Example 1 to the compound (23). Further, a probe liquid 7 was obtained by adding MK571 and FTC, each at 30 μM, as a transporter inhibitor.
4 mL of the probe liquid 6 and 7 and each of 20 juvenile zebrafish on 7 days post fertilization were each loaded into any well of a 6-well multiplate, and exposure was started. The zebrafish during exposure were each taken out of the well 60 minutes, 180 minutes and 360 minutes after the starting of the exposure, and in accordance with the same operation as in Example 1, fluorescence images of a cranial nerve tissue and a blood vessel on the zebrafish body side were captured and fluorescence intensities in the CNS tissue and the blood vessel were evaluated.

transport by transporters (substrate property)	SMILES
transported by both of MRP and BCRP	COc1ccc(N2c3ccc(/C=C4/SC(=S)N(CC(=O)O)C4=O)cc3C3CCCC32)cc1 (centres unmarked) [Compound 23]
